Source: patent US11690838B2, “Therapeutic agent for fibrosis” (TAIHO PHARMACEUTICAL CO., LTD., priority 2015, dated 2023)

System: Bleomycin-Induced Mouse Pathology (Lung Fibrosis) Model
Assay: Suppression effect on bleomycin-induced mouse pathology (lung fibrosis) model
Format: in vivo
Conditions: C57BL mice, bleomycin intratracheal, every day for 35 days; for hydroxyproline amount of lung tissues compared to the control group (pathological condition): FIG. 1; for score of abnormal accumulation of a fibrous tissue in lung tissues (Ashcroft's method) compared to the control group: FIG. 2
Procedure: Test Example 1: Suppression Effect on Bleomycin-Induced Mouse Pathology (Lung Fibrosis) Model
Mice (C57BL, 6 weeks old) were anesthetized by intraperitoneally administrating pentobarbital (50 mg/kg/day), and then bleomycin (20 μg/25 μL per mouse) was intra-tracheally sprayed by a sprayer. A week later, the mice were anesthetized by inhalation of isoflurane, 0.2 mL of blood was taken from the eye orbit of the mice. The blood level of a surfactant protein-D (SP-D) was measured. The mice were divided into groups (9 mice) such that the groups have an equal average SP-D value.
The compound of the present invention was orally administered at each of doses of 100 and 200 mg/kg/day, every day for 35 days. In order to confirm whether a pathological model was established, an untreated group (Normal group) and a Sham group were set up. To the mice of the Sham group, physiological saline was intratracheally sprayed in place of bleomycin. The next day after completion of the final administration, the mice were anesthetized by inhalation of isoflurane and euthanized. Thereafter, the lungs were excised out and subjected to pathological analysis for tissues. Abnormal accumulation of a fibrous tissue was evaluated and the amounts of hydroxyproline in the tissues were measured. The abnormal accumulation of a fibrous tissue was evaluated by using Ashcroft's method (J Clin Pathol 1988; 41: 467-470).
The hydroxyproline amounts of lung tissues of individual groups are shown in FIG. 1 and scores of abnormal accumulation of a fibrous tissue in the lung tissues are shown in FIG. 2. […] From this, it was determined that abnormal accumulation of a fibrous tissue in the lung tissue in mice was induced by bleomycin treatment and pathological models are established.

CNC(=O)c1cc2c(Oc3ccc(NC(=S)NC(=O)Cc4ccccc4)cc3F)ccnc2cc1OC [the compound of the present invention, 4-[2-Fluoro-4-[[[(2-phenylacetyl)amino]thioxomethyl]amino]-phenoxy]-7-methoxy-N-methyl-6-quinolinecarboxamide]
significantly low: hydroxyproline amount of lung tissues compared to the control group (pathological condition) (100 mg/kg/day orally) | score of abnormal accumulation of a fibrous tissue in lung tissues (Ashcroft's method) compared to the control group (100 mg/kg/day orally) | hydroxyproline amount of lung tissues compared to the control group (pathological condition) (200 mg/kg/day orally) | score of abnormal accumulation of a fibrous tissue in lung tissues (Ashcroft's method) compared to the control group (200 mg/kg/day orally)
